The text below walks through data of patent US20220347309A1, “PYRROLOBENZODIAZEPINE RESISTANCE” (ADC THERAPEUTICS SA, priority 2018, published 2022).

Type in all cases: cell-based, human
The test system of test [1] is Karpas-299 wt cells. Put plainly: Single dose 2-hour exposure cytotoxicity (MTS). Conditions: 130 pM ADCT-301 or 280 pM SG3199 for 2 hours, then 96 hours, vs untreated control.
In test [2] the test system is NCI-N87 PBDr cells. Kind of test: Single dose 2-hour exposure cytotoxicity (MTS). To be noted: 1.7 nM ADCT-502 or 1.7 nM SG3199 for 2 hours, then 144 hours. As for the experimental part:
(§1) To investigate growth inhibition under the same conditions under which DNA ICL formation was measured, NCI-N87-ADCR cells were treated with 1 nM ADCT-502, and PBDR cells treated with 1.7 nM SG3199 for 2 hours, then washed and incubated for 144 hours under normal cell culture conditions. The MTS assay and calculation of % growth compared to the untreated control was carried out as previously described.
(§2) To investigate whether the cross-resistance in ICL formation observed in the NCI-N87 resistant cell lines also correlates with growth inhibition at this dose, ADCR cells were treated with 1 nM SG3199, and PBDR cells treated with 1.7 nM ADCT-502 for 2 hours, then washed and incubated for 144 hours under normal cell culture conditions. The MTS assay and calculation of % growth compared to the untreated control was carried out as previously described. The results are shown in FIG. 24 for the ADCR line and FIG. 25 for the PBDR line.

For test [3], the system named is NCI-N87 ADCr cells. Put plainly: Single dose 2-hour exposure cytotoxicity (MTS). To be noted: 1 nM ADCT-502 or 1 nM SG3199 for 2 hours, then 144 hours. The method, then:
as §1, §2

The test system of test [4] is NCI-N87 wt cells. Kind of test: Single dose 2-hour exposure cytotoxicity (MTS). Conditions: single dose for 2 hours, then 144 hours, vs untreated control.
The subject of test [5] is NCI-N87 PBDr cells (SG3199 acquired resistant). Kind of test: MTS in vitro cytotoxicity, 144 h continuous exposure.
Protocol: To generate a resistant population to either ADCT-502 or SG3199, human gastric cancer NCI-N87 cells (expressing HER2) were incubated with an approximate IC50 dose of the drug for 144 hours. The cells were then washed and returned to fresh medium until normal cell growth was recovered. This process was repeated until a measurable and stable loss in cytotoxic efficacy was established using the MTS assay.
To measure the in vitro cytotoxicity with the MTS assay, cells were incubated with a 10-fold dilution range of ADCT-502 or SG3199, and incubated with continuous exposure for 144 hours (at least three cell doubling times under normal cell culture conditions). After incubation the CellTiter 960 AQueous One Solution Cell Proliferation Assay (MTS) was used to measure growth inhibition, by adding 20 μl reagent to the cells and incubating for 3-4 hours, then reading the absorbance at 492 nm. Mean % growth of the ADC or PBD treated cells was calculated relative to an untreated control.
To measure the cross-resistance of the NCI-N87 ADCR cells to the SG3199 PBD warhead, and the PBDR cells to ADCT-502, the in vitro cytotoxicity assay was carried out as described above, treating the cells with the opposite drug molecule to the one with which they were generated.

One may read the IC50 as the concentration at which inhibition is half-maximal. On to `COc1cc2c(cc1OCCCCCOc1cc3c(cc1OC)C(=O)N1C=C(C)C[C@H]1C=N3)N=C[C@@H]1CC(C)=CN1C2=O` [SG3199], for which the “2 hr mean % growth” value in test [1] is recorded as 33.8%; in test [2], 76.6%; in test [3], 57.2%; in test [4] it was 29.0%. In test [5] (NCI-N87 PBDr vs NCI-N87 wt IC50), the “fold resistance compared to wildtype” value is given as 3.7 fold. The IC50 in test [5] (NCI-N87 PBDr, 144 h continuous exposure, mean, read-out: IC50) turned out to be 0.0586 nM.
